Results as given in ChEMBL document CHEMBL4229566, “Discovery of ( S)-3-(3-(3,5-Dimethyl-1 H-pyrazol-1-yl)phenyl)-4-(( R)-3-(2-(5,6,7,8-tetrahydro-1,8-naphthyridin-2-yl)ethyl)pyrrolidin-1-yl)butanoic Acid, a Nonpeptidic αvβ6 Integrin Inhibitor for the Inhaled Treatment of Idiopathic Pulmonary Fibrosis” (J Med Chem, 2018).

Key:
[1] = biological target: T1, Voltage-gated inwardly rectifying potassium channel KCNH2 (Homo sapiens, UniProt Q12809)
Description: Inhibition of human ERG expressed in HEK293 cells by Barracuda automated patch clamp assay

physchem = conditions: buffer, pH 7.4, logD
[2] = biological target: T1, Voltage-gated inwardly rectifying potassium channel KCNH2; remark: listed apart in the source
Description: Inhibition of human ERG expressed in HEK293 cells by Q-patch assay

Integrin alpha-V/beta-6 [3] = biological target: T2, Integrin alpha-V/beta-6 (Homo sapiens, UniProt P06756+P18564)
Target sequence in this assay (P06756 31-889 limits assumed): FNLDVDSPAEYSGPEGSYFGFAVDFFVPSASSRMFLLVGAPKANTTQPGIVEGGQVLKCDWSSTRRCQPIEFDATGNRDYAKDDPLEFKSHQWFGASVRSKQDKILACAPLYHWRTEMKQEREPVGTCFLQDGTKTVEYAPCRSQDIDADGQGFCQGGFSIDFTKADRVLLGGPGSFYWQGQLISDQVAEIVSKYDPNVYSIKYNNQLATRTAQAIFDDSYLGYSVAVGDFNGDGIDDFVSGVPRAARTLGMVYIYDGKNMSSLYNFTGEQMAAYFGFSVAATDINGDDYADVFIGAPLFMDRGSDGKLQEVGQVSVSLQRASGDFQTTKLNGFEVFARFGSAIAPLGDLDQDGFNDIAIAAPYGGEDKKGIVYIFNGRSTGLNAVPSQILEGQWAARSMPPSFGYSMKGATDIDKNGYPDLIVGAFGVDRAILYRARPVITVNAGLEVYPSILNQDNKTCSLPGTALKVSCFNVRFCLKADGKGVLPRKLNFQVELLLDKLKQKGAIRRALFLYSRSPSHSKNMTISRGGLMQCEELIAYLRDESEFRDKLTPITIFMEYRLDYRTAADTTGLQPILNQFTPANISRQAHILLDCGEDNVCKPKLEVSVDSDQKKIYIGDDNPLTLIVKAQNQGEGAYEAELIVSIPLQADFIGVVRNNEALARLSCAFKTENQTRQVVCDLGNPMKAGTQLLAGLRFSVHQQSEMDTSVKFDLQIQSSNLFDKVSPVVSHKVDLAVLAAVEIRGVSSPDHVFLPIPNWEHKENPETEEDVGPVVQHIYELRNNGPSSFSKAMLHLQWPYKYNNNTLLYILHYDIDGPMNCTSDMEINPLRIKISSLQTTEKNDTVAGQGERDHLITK
Target sequence in this assay (P06756 891-1048 limits assumed): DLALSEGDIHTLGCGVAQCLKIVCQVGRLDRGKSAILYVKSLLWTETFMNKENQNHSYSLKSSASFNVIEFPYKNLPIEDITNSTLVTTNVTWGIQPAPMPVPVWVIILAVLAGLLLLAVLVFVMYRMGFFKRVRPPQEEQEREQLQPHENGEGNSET
Target sequence in this assay (P18564 22-788 limits assumed): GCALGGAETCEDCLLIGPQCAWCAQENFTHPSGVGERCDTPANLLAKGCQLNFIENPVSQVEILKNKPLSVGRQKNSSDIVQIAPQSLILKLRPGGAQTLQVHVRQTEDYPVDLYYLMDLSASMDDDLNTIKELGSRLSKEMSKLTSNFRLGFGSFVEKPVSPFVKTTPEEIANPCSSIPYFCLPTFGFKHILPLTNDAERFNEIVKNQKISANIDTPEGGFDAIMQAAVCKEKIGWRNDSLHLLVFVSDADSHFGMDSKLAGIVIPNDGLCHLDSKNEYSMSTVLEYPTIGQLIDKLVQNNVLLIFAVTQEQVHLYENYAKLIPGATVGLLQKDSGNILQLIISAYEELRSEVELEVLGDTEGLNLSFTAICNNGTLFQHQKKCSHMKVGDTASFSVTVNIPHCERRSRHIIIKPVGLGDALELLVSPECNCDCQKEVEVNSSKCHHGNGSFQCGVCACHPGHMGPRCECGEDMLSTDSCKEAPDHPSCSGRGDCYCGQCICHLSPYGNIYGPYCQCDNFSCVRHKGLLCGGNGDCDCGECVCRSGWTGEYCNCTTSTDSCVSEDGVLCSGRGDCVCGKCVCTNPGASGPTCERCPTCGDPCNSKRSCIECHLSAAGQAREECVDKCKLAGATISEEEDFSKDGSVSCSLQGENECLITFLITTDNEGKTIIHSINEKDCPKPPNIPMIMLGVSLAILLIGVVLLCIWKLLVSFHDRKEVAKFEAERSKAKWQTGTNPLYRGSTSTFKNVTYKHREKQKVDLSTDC

Integrin alpha-V/beta-6 [4] = biological target: T2, Integrin alpha-V/beta-6; remark: listed apart in the source
Description: Binding affinity to human integrin alphaVbeta6 assessed as dissociation half life up to 48 hrs by liquid scintillation counting

[5] = Toxicity in rabbit cardiac ventricular wedge assessed as increase in QT interval prolongation at 1 to 3 uM; assay type: tissue-based, Oryctolagus cuniculus, Cardiac ventricle
[6] = Protein binding in human blood at 1 ug/ml after 4 hrs by LC-MS/MS analysis; assay type: ADME, tissue-based; conditions: at 1 µg/mL, read-out: PB (converted)

T1 sequence (Q12809 whole entry): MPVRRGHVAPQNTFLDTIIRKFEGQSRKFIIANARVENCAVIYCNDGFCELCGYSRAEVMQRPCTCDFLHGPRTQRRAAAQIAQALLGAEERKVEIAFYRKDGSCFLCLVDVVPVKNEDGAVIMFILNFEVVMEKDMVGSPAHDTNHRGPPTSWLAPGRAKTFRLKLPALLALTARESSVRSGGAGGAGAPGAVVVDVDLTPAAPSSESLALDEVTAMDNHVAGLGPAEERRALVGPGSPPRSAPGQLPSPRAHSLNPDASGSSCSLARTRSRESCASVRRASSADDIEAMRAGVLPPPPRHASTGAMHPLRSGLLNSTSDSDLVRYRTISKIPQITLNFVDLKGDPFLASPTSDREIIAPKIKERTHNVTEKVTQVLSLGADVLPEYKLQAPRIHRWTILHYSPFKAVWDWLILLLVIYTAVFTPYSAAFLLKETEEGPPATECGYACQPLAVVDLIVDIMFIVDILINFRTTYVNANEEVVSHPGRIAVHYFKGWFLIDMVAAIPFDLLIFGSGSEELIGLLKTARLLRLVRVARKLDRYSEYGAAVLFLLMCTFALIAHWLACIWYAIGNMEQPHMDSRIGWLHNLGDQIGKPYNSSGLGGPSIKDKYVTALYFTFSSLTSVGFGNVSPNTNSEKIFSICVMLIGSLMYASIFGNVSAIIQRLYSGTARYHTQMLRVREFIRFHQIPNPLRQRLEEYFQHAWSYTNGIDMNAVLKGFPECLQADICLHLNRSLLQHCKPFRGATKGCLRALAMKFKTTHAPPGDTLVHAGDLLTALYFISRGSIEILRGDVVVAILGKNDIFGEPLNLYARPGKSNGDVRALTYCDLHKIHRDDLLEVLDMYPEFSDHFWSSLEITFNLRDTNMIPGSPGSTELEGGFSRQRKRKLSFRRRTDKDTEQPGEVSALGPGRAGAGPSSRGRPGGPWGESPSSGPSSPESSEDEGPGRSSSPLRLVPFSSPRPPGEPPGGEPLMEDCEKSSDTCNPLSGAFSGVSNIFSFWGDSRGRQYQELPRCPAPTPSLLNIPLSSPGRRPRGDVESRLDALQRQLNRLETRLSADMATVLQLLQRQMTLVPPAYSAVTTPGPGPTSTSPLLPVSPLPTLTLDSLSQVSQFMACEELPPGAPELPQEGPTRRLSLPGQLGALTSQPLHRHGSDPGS

SMILES | IC50 [1] | logD (physchem) | IC50 [2] | further results
O=C(O)C[C@H](CN1CC[C@@H](CCc2ccc3c(n2)NCCC3)C1)c1cccc(Br)c1 | 1.26 µM | 3.15 | – | –
O=C(O)C[C@H](CN1CC[C@@H](CCc2ccc3c(n2)NCCC3)C1)c1cccc(N2CCOCC2)c1 | – | 2.27 | – | –
Cc1cnn(C)c1-c1cccc([C@H](CC(=O)O)CN2CC[C@@H](CCc3ccc4c(n3)NCCC4)C2)c1 | – | 2.72 | – | –
Cc1nc(C)n(-c2cccc([C@H](CC(=O)O)CN3CC[C@@H](CCc4ccc5c(n4)NCCC5)C3)c2)n1 | > 50.1 µM | 1.66 | > 31.6 µM | –
Cc1cc(-c2cccc([C@H](CC(=O)O)CN3CC[C@@H](CCc4ccc5c(n4)NCCC5)C3)c2)[nH]n1 | > 50.1 µM | 2.53 | 25.1 µM | –
O=C(O)C[C@@H](CN1CC[C@@H](CCc2ccc3c(n2)NCCC3)C1)c1cccc(N2CCOCC2)c1 | – | 1.99 | – | –
O=C(O)C[C@H](CN1CC[C@@H](CCc2ccc3c(n2)NCCC3)C1)c1cccc(-n2cccn2)c1 | > 50.1 µM | 2.4 | 0.794 µM | –
N=C(N)Nc1cccc(C(=O)NCC(=O)NC(CC(=O)O)c2cc(Cl)cc(Cl)c2)c1 (centres undefined) | – | – | – | Ki (Integrin alpha-V/beta-6 [3]): 0.002 µM; T1/2 (Integrin alpha-V/beta-6 [4]): 5 min
O=C(O)C[C@H](CN1CC[C@@H](CCc2ccc3c(n2)NCCC3)C1)c1cccc(C2CC2)c1 | – | – | – | Activity [5]: Dose-dependent effect
O=C(O)CC(CN1CC[C@@H](CCc2ccc3c(n2)NCCC3)C1)c1cccc(-n2ccnc2)c1 (mixture of isomers) | > 50.1 µM | 1.97 | > 31.6 µM | –
O=C(O)C[C@H](CN1CC[C@@H](CCc2ccc3c(n2)NCCC3)C1)c1cccc(-n2cnnc2)c1 | > 50.1 µM | 1.05 | > 31.6 µM | fraction unbound at 4 h, 1 ug/ml [6]: 0.46
O=C(O)C[C@H](CN1CC[C@@H](CCc2ccc3c(n2)NCCC3)C1)c1cccc(C2CCOCC2)c1 | – | 2.62 | – | –
O=C(O)C[C@H](CN1CC[C@@H](CCc2ccc3c(n2)NCCC3)C1)c1cccc(-n2cncn2)c1 | > 50.1 µM | 1.95 | > 31.6 µM | fraction unbound at 4 h, 1 ug/ml [6]: 0.4
